Data reported in US20250017903A1, “USE OF EDARAVONE IN TREATMENT OF AUTISM SPECTRUM DISORDER” (SUZHOU AUZONE BIOLOGICAL TECHNOLOGY CO., LTD., priority 2021, published 2025).

Legend:
[1] = system: VPA-induced autism model rats; test: Three-chamber social test (social index) in VPA-induced rat autism model; type: in vivo; settings: for Social index (SI): VPA rats, mean ± SE
Description: (§1) Twenty-five SD pregnant rats were given a single intraperitoneal injection of 500 mg/kg sodium valproate (VPA) on 12.5 embryonic day and delivered on 21 embryonic day, and the male offspring were retained as the VPA group. Five pregnant rats in the control group were given a single intraperitoneal injection of normal saline of the same amount on 12.5 embryonic day and delivered on 21 embryonic day; and the male offspring were designated as the CON group.
(§2) When the offspring rats were 25th day old, an open field test was conducted to observe the grooming time, which reflects the repetitive and stereotyped behaviors of the animals); a three-chamber social test was conducted to observe the Social Index (SI), Social Index=(Time when the animal enters the unfamiliar rat area-time when the animal enters the empty cage area)÷(time when the animal enters the unfamiliar rat area+time when the animal enters the empty cage area), reflecting the social ability of experimental animals.
(§3) On the 26th day after the offspring were born, the modeled VPA group was randomly divided into 6 groups: placebo group (n=19, soluplus 428 mg/kg), positive drug (cromolyn sodium) group (n=14, cromolyn sodium 6.3 mg/kg), positive drug solvent (NS) group (n=12, equal dose of normal saline), EDA low-dose group (n=12, Edaravone 3 mg/kg), EDA medium-dose group (n=12, Edaravone 10 mg/kg) and EDA high-dose group (n=22, Edaravone 30 mg/kg); and another CON group (n=9). The positive drug group and the positive drug solvent group were given intraperitoneal injection, and the placebo group and each dose group of EDA were administrated by oral gavage, once a day for 28 consecutive days. Three-chamber social tests were conducted after 14 and 28 days of administration, and an open field test was conducted after 28 days of administration. After the animals were sacrificed, 6 animals were randomly selected from each group of the placebo group and each dose group of EDA, and the prefrontal cortex, hippocampus, cerebellum and blood were collected to detect oxidative stress-related indicators, so as to detect the antioxidant capacity of the body.

[2] = system: VPA-induced autism model rats; test: Open field test (grooming time) in VPA-induced rat autism model; type: in vivo; settings: for Grooming time: VPA rats, mean ± SE, in s (unit assumed); for Grooming time compared with before treatment: self-comparison, p<0.05 (FIG. 5)
Description: as §1, §2, §3

[3] = system: superoxide dismutase (SOD); test: SOD activity detection in brain tissue of VPA model rats; type: in vivo, rat; settings: for SOD activity in the cerebellum (CE) / SOD activity in the prefrontal cortex (PFC): after 28 days of gavage, mean ± SE
Description: as §3
After 28 days of gavage treatment, the results of superoxide dismutase (SOD) activity detection in the prefrontal cortex (PFC) and cerebellum (CE) are shown in Table 3.

[4] = system: glutathione S-transferase (GST); test: GST activity detection in brain tissue of VPA model rats; type: in vivo, rat; settings: for GST activity in the hippocampus (HIP) / GST activity in the prefrontal cortex (PFC): after 28 days of gavage, mean ± SE
Description: as §3
After 28 days of gavage treatment, the results of glutathione S-transferase (GST) activity detection in the prefrontal cortex (PFC) and hippocampus (HIP) are shown in Table 4.

[5] = system: reduced glutathione (GSH); test: GSH detection in hippocampus and serum of VPA model rats; type: in vivo, rat; settings: for GSH activity in the hippocampus (HIP) / GSH activity in the serum: after 28 days of gavage, mean ± SE
Description: as §3
After 28 days of gavage treatment, the results of reduced glutathione (GSH) activity detection in hippocampus (HIP) and serum are shown in Table 5.

cysteine (Cys) = test: Cys content detection in serum of VPA model rats; type: in vivo, rat; settings: for Cys content in serum: after 28 days of gavage, mean ± SE
Description: as §3

[6] = Day 28, EDA 3 mg/kg oral gavage once a day
[7] = Day 28, EDA 10 mg/kg oral gavage once a day
[8] = Day 28, EDA 30 mg/kg oral gavage once a day
[9] = after 14 days of treatment, each dose group of EDA and cromolyn sodium group, p<0.01 (FIG. 4)
[10] = before treatment (baseline), EDA 3 mg/kg group
[11] = before treatment (baseline), EDA 10 mg/kg group
[12] = before treatment (baseline), EDA 30 mg/kg group
[13] = Day 28, cromolyn sodium 6.3 mg/kg intraperitoneal once a day
[14] = before treatment (baseline), cromolyn sodium 6.3 mg/kg group

CC1=NN(c2ccccc2)C(=O)C1 [EDA, 3-methyl-1-phenyl-2-pyrazolin-5-one]
Social index (SI) ([1]; Day 14, EDA 3 mg/kg oral gavage once a day): 0.37 ± 0.14
Social index (SI) ([1]; Day 14, EDA 10 mg/kg oral gavage once a day): 0.42 ± 0.15
Social index (SI) ([1]; Day 14, EDA 30 mg/kg oral gavage once a day): 0.51 ± 0.11
Social index (SI) [1, 6]: 0.48 ± 0.10
Social index (SI) [1, 7]: 0.53 ± 0.09
Social index (SI) [1, 8]: 0.55 ± 0.06
Social index compared with the placebo group [1, 9]: significantly improved
Social index compared with the placebo group ([1]; after 28 days of treatment, each dose group of EDA, p<0.05, high dose p<0.01 (FIG. 4)): significantly improved
Social index (SI) [1, 10]: −0.12 ± 0.11
Social index (SI) [1, 11]: −0.07 ± 0.15
Social index (SI) [1, 12]: −0.04 ± 0.12
Social index compared with before treatment ([1]; each dose group, after 14 and 28 days of continuous gavage, self-comparison (FIG. 3)): increased significantly
Grooming time [2, 6]: 6.29 ± 1.72
Grooming time [2, 7]: 5.04 ± 1.67
Grooming time [2, 8]: 17.27 ± 5.78
Grooming time compared with the placebo group ([2]; after 28 days of continuous gavage, each dose group of EDA, p<0.05, low and medium dose p<0.01 (FIG. 6)): significantly reduced
Grooming time compared with before treatment ([2]; after 28 days of treatment): significantly reduced
Grooming time compared with the positive drug (cromolyn sodium) group ([2]; after 28 days, EDA low-dose (3 mg/kg) and medium-dose (10 mg/kg) groups (FIG. 6)): significantly reduced
Grooming time [2, 10]: 29.17 ± 5.82
Grooming time [2, 11]: 20.76 ± 4.42
Grooming time [2, 12]: 36.3 ± 5.08
SOD activity in the prefrontal cortex compared with the placebo group ([3]; EDA medium-dose and high-dose groups, p<0.05, high dose p<0.001 (FIG. 7)): significantly increased
SOD activity in the cerebellum (CE) ([3]; EDA 3 mg/kg): 67.04 ± 11.3 U/mgprot
SOD activity in the prefrontal cortex (PFC) ([3]; EDA 3 mg/kg): 124.6 ± 5.73 U/mgprot
SOD activity in the cerebellum (CE) ([3]; EDA 10 mg/kg): 83.07 ± 3.39 U/mgprot
SOD activity in the prefrontal cortex (PFC) ([3]; EDA 10 mg/kg): 203.4 ± 14.37 U/mgprot
SOD activity in the cerebellum (CE) ([3]; EDA 30 mg/kg): 138.7 ± 18.62 U/mgprot
SOD activity in the prefrontal cortex (PFC) ([3]; EDA 30 mg/kg): 315 ± 42.53 U/mgprot
GST activity in the hippocampus (HIP) ([4]; EDA 3 mg/kg): 144.5 ± 59.64 U/mgprot
GST activity in the prefrontal cortex (PFC) ([4]; EDA 3 mg/kg): 39.54 ± 13.34 U/mgprot
GST activity in the hippocampus (HIP) ([4]; EDA 10 mg/kg): 117.7 ± 28.12 U/mgprot
GST activity in the prefrontal cortex (PFC) ([4]; EDA 10 mg/kg): 46.93 ± 13.31 U/mgprot
GST activity in the hippocampus (HIP) ([4]; EDA 30 mg/kg): 295.4 ± 54.67 U/mgprot
GST activity in the prefrontal cortex (PFC) ([4]; EDA 30 mg/kg): 103.8 ± 22.27 U/mgprot
GST activity in the prefrontal cortex (PFC) compared with the placebo group ([4]; high-dose EDA group, p<0.01 (FIG. 9)): significantly increased
GST activity in the hippocampus (HIP) compared with the placebo group ([4]; high-dose EDA group, p<0.01 (FIG. 10)): significantly increased
GSH activity in the serum compared with the placebo group ([5]; EDA high-dose group, p<0.01 (FIG. 12)): even more significantly increased
GSH activity in the hippocampus (HIP) compared with the placebo group ([5]; EDA high-dose group, p<0.05 (FIG. 11)): significantly increased
GSH activity in the hippocampus (HIP) ([5]; EDA 3 mg/kg): 14.44 ± 7.97 U/mgprot
GSH activity in the serum ([5]; EDA 3 mg/kg): 9.6 ± 2.14 U/mgprot
GSH activity in the hippocampus (HIP) ([5]; EDA 10 mg/kg): 49.39 ± 10.34 U/mgprot
GSH activity in the serum ([5]; EDA 10 mg/kg): 10.35 ± 1.92 U/mgprot
GSH activity in the hippocampus (HIP) ([5]; EDA 30 mg/kg): 78.87 ± 17.13 U/mgprot
GSH activity in the serum ([5]; EDA 30 mg/kg): 21.45 ± 0.86 U/mgprot
Cys content in the blood compared with the placebo group (cysteine (Cys); EDA high-dose group, after 28 days of treatment, p<0.0001 (FIG. 13)): significantly higher
Cys content in serum (cysteine (Cys); EDA 3 mg/kg): 0.35 ± 0.05 µmol/mL
Cys content in serum (cysteine (Cys); EDA 10 mg/kg): 0.38 ± 0.13 µmol/mL
Cys content in serum (cysteine (Cys); EDA 30 mg/kg): 1.15 ± 0.10 µmol/mL

O=C(O)c1cc(=O)c2c(OCC(O)COc3cccc4oc(C(=O)O)cc(=O)c34)cccc2o1 [cromolyn sodium]
Social index (SI) ([1]; Day 14, cromolyn sodium 6.3 mg/kg intraperitoneal once a day): 0.08 ± 0.37
Social index (SI) [1, 13]: 0.42 ± 0.07
Social index compared with the placebo group [1, 9]: significantly improved
Social index, positive drug versus positive drug solvent group ([1]; after 28 days of treatment, cromolyn sodium 6.3 mg/kg intraperitoneal (FIG. 4)): no significant difference
Social index (SI) [1, 14]: −0.13 ± 0.12
Grooming time [2, 13]: 12.41 ± 2.01
Grooming time, positive drug solvent group versus positive drug group ([2]; after 28 days of treatment, cromolyn sodium 6.3 mg/kg intraperitoneal (FIG. 6)): no significant difference
Grooming time compared with before treatment ([2]; after 28 days of treatment): significantly reduced
Grooming time [2, 14]: 27.63 ± 5.78
